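All cell lines were grown in 96-well plates and treated with compound for 48 hours. GI50 = concentration required for 50% inhibition of growth.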 Activity calls are given as the source filed them. Cut-off read from the data, not from the text of the source: active = GI50 up to about 1.1 µM and inactive = higher.
Columns and labels:
Assay in all cases: inhibition of tumour cell growth, NCI panel, 48 h
HCC 2998 = system: HCC 2998
HOP-62 = system: HOP-62
K562 = system: K562
LXFL 529 = system: LXFL 529
Malme-3M = system: Malme-3M
NCI-H226 = system: NCI-H226
NCI-H522 = system: NCI-H522
SF-268 = system: SF-268
SF-295 = system: SF-295
SK-MEL-2 = system: SK-MEL-2
SK-MEL-5 = system: SK-MEL-5
SN12C = system: SN12C
SR = system: SR
U-251 = system: U-251
UACC-62 = system: UACC-62
SNB-75 = system: SNB-75
A498 = system: A498

| Compound | GI50 (HCC 2998) | GI50 (HOP-62) | GI50 (K562) | GI50 (LXFL 529) | GI50 (Malme-3M) | GI50 (NCI-H226) | GI50 (NCI-H522) | GI50 (SF-268) | GI50 (SF-295) | GI50 (SK-MEL-2) | GI50 (SK-MEL-5) | GI50 (SN12C) | GI50 (SR) | GI50 (U-251) | GI50 (UACC-62) | GI50 (SNB-75) | GI50 (A498) |
| --- | --- | --- | --- | --- | --- | --- | --- | --- | --- | --- | --- | --- | --- | --- | --- | --- | --- |
| Cc1nc(Nc2ccccc2)sc1C(=O)CC(=O)C(=O)Nc1c(C(C)C)cccc1C(C)C | > 100 µM (inactive) | 97.7 µM (inactive) | 83 µM (inactive) | 60 µM (inactive) | > 100 µM (inactive) | > 100 µM (inactive) | > 100 µM (inactive) | > 100 µM (inactive) | > 100 µM (inactive) | > 100 µM (inactive) | > 100 µM (inactive) | > 100 µM (inactive) | 20.6 µM (inactive) | > 100 µM (inactive) | 55.6 µM (inactive) | – | – |
| Cc1cc(NS(=O)(=O)c2ccc(Nc3c4ccccc4nc4c(C(=O)NCCN(C)C)ccc(Cl)c34)cc2)no1 | 3.21 µM (inactive) | 4.57 µM (inactive) | 2.99 µM (inactive) | 4.67 µM (inactive) | – | 1.85 µM (inactive) | 0.54 µM (active) | 2.15 µM (inactive) | 3.8 µM (inactive) | 6.1 µM (inactive) | 2 µM (inactive) | 3.88 µM (inactive) | 0.37 µM (active) | 2.42 µM (inactive) | 2.35 µM (inactive) | 2.76 µM (inactive) | – |
| CC[As](CC)SCC1OC(OC(C)=O)C(OC(C)=O)C(OC(C)=O)C1OC(C)=O (stereo not drawn) | 17.5 µM (inactive) | 20.8 µM (inactive) | 4.38 µM (inactive) | 1.92 µM (inactive) | 3.53 µM (inactive) | 14.3 µM (inactive) | 1.75 µM (inactive) | 11.6 µM (inactive) | 18.9 µM (inactive) | 12.6 µM (inactive) | 15.1 µM (inactive) | 14.4 µM (inactive) | 12 µM (inactive) | 12.8 µM (inactive) | 13.9 µM (inactive) | 25.5 µM (inactive) | 20.6 µM (inactive) |
| Nc1nc(NC2C=C(CO)C(O)C2O)c([N+](=O)[O-])c(=O)[nH]1 (stereo not drawn) | > 100 µM (inactive) | > 100 µM (inactive) | > 100 µM (inactive) | > 100 µM (inactive) | > 100 µM (inactive) | > 100 µM (inactive) | > 100 µM (inactive) | > 100 µM (inactive) | > 100 µM (inactive) | > 100 µM (inactive) | > 100 µM (inactive) | > 100 µM (inactive) | > 100 µM (inactive) | > 100 µM (inactive) | > 100 µM (inactive) | > 100 µM (inactive) | > 100 µM (inactive) |
| O=c1c2ccccc2[nH]c2ccc3c(Cl)n[nH]c3c12 | 35.5 µM (inactive) | 29.1 µM (inactive) | 34.3 µM (inactive) | 51.6 µM (inactive) | 19.1 µM (inactive) | 0.54 µM (active) | 35 µM (inactive) | 50.5 µM (inactive) | 37.2 µM (inactive) | 30.7 µM (inactive) | 40.9 µM (inactive) | 33.5 µM (inactive) | 36.1 µM (inactive) | 53.6 µM (inactive) | 35 µM (inactive) | 42.9 µM (inactive) | 30.9 µM (inactive) |
| O=C(O)/C(O)=C1/C=C(c2ccccc2)c2ccccc21 | 21.5 µM (inactive) | 25.4 µM (inactive) | 26.1 µM (inactive) | 27.5 µM (inactive) | 25.5 µM (inactive) | 21.6 µM (inactive) | 16.9 µM (inactive) | 22 µM (inactive) | 18.8 µM (inactive) | 16.7 µM (inactive) | 17.7 µM (inactive) | 23.8 µM (inactive) | 18.7 µM (inactive) | 18.7 µM (inactive) | 16.1 µM (inactive) | 22 µM (inactive) | 31.7 µM (inactive) |
| CC1(C)CC(C2CC(C)(C)CC(C)(C)[C@H]2O)[C@@H](O)C(C)(C)C1 (stereo partly drawn) | > 100 µM (inactive) | > 10 µM (inactive) | > 100 µM (inactive) | > 100 µM (inactive) | > 100 µM (inactive) | > 100 µM (inactive) | > 100 µM (inactive) | > 100 µM (inactive) | > 100 µM (inactive) | – | > 100 µM (inactive) | > 100 µM (inactive) | > 100 µM (inactive) | > 100 µM (inactive) | > 100 µM (inactive) | – | – |
| CC1=C(/C(C)=N/NC(=O)c2ccccc2O)C(C)C(/C(C)=N/NC(=O)c2ccccc2O)=C(C)N1 | – | 25.1 µM (inactive) | 16.6 µM (inactive) | 23.3 µM (inactive) | 29.4 µM (inactive) | – | 17.5 µM (inactive) | 25.6 µM (inactive) | – | – | 19.8 µM (inactive) | 45.1 µM (inactive) | 23.8 µM (inactive) | 28.7 µM (inactive) | 6.5 µM (inactive) | 11.6 µM (inactive) | 27.8 µM (inactive) |
| NC(Cc1ccccc1)C(=O)OCN1C(=O)C2C3C=CC(C2C1=O)C1C2C(=O)N(COC(=O)C(N)Cc4ccccc4)C(=O)C2C31 (stereo not drawn) | – | > 100 µM (inactive) | 25.8 µM (inactive) | 19.4 µM (inactive) | – | 46.7 µM (inactive) | – | 25.9 µM (inactive) | 48 µM (inactive) | – | 18.3 µM (inactive) | 22.3 µM (inactive) | 27.7 µM (inactive) | 20.7 µM (inactive) | 23 µM (inactive) | 22.9 µM (inactive) | – |
| CC(=O)OC1C=CC2CCN3C(=O)c4cc5c(cc4[C@H]1C23)OCO5 (stereo partly drawn) | > 10 µM (inactive) | > 100 µM (inactive) | > 100 µM (inactive) | > 100 µM (inactive) | > 100 µM (inactive) | > 100 µM (inactive) | > 100 µM (inactive) | > 100 µM (inactive) | > 100 µM (inactive) | – | – | > 100 µM (inactive) | > 100 µM (inactive) | > 100 µM (inactive) | > 100 µM (inactive) | > 100 µM (inactive) | – |
| CCCCCCCCCCCCCCCCCCOCC(C[N+]1(C)CCC(O)CC1)OCC (stereo not drawn) | 12.7 µM (inactive) | 4.23 µM (inactive) | 4.17 µM (inactive) | 2.84 µM (inactive) | 12.3 µM (inactive) | 3.08 µM (inactive) | 5.71 µM (inactive) | 3.39 µM (inactive) | 4.68 µM (inactive) | 4.3 µM (inactive) | – | 4.06 µM (inactive) | 1.78 µM (inactive) | – | 5.27 µM (inactive) | 3.95 µM (inactive) | 11.7 µM (inactive) |
| O=c1oc2c(O)c(O)c(O)c3c(=O)oc4c(O)c(O)cc1c4c23 [FLAVELLAGIC ACID] | > 100 µM (inactive) | > 100 µM (inactive) | 25.6 µM (inactive) | 73.1 µM (inactive) | > 100 µM (inactive) | 83 µM (inactive) | 46.1 µM (inactive) | > 100 µM (inactive) | 23.8 µM (inactive) | > 100 µM (inactive) | > 100 µM (inactive) | 18.6 µM (inactive) | > 100 µM (inactive) | 19.3 µM (inactive) | 57.3 µM (inactive) | 47.6 µM (inactive) | > 100 µM (inactive) |

From ChEMBL document CHEMBL1201862, “PubChem BioAssay data set” (2004)
